Tests used:
[1] = target: T1, R269W ITPR1 (Homo sapiens, UniProt Q14643, R269W); test: Fluo-4 Ca2+ assay, UTP, HEK293 cells with inducible R269W ITPR1; type: cell-based; settings: UTP 5 μM; compound 10 μM; tetracycline-induced; FIG. 6B-C
T1 construct: expressed in transfected cells
Method: HEK293 cells stably transfected with tetracycline-inducible expression of wild type or mutant (R269W or T267M) ITPR1, kindly provided by Prof. S. R. Wayne Chen (University of Calgary; ref. 14), were cultured in a mixture of Dulbecco's Modified Eagle Medium (DMEM, high glucose version) and Ham's F12 (1:1) and supplemented with 10% fetal bovine serum, 2 mM L-glutamine, 100 U/ml penicillin and 100 μg/ml streptomycin. Cells were selected with 0.5 mg/ml hygromycin B and induced with 1 μg/ml tetracycline.
(§1) Experiments were performed using the microplate reader described for the HS-YFP assay. FRT and HEK293 cells were cultured until confluence in 96-well microplates (3603, Corning). Cells were washed 2 times with PBS (150 μl/wash) and then loaded for 1 h at 37° C. with 5 μM Fluo-4/AM (Thermo Fisher Scientific; catalog number: F23917) in PBS containing 10 mM glucose, 0.5 mM sulfinpyrazone, and 1% fetal bovine serum. After loading, cells were washed 2 times with PBS-glucose-sulfinpyrazone (150 μl/wash) and incubated for 20 min at 37° C. with 60 μl of PBS plus 10 mM glucose and 0.5 mM sulfinpyrazone containing compounds of interest at 10 μM final concentration or vehicle. Each well was assayed individually. Fluo-4 fluorescence (500 nm excitation, 535 nm emission) was detected every 200 ms for 16-40 s. Two seconds after the start of fluorescence recording, the reader automatically injected 165 μl of a modified PBS containing 136 mM KCl instead of NaCl. This solution also contained 10 mM glucose, 0.5 mM sulfinpyrazone, and UTP or SLIGR-NH2 (CAS #171436-38-7) at a final concentration that depended on the specific cell type. For UTP we used: 0.25 μM for FRT; 1 μM for HEKR2; 5 μM for HEK3XKO, HEKR1, and HEKR3. For SLIGR-NH2 we used: 10 μM for HEKR1; 4 μM for HEKR2. These concentrations were chosen to elicit ˜20% of maximal effect based on UTP and SLIGR-NH2 dose-response relationships. […] The Fluo-4 fluorescence increase was quantified using a procedure compiled in Microsoft Excel after background subtraction and normalization for the initial value measured before UTP addition.

[2] = target: T2, ITPR2 (Homo sapiens, UniProt Q14571); test: Fluo-4 Ca2+ assay, UTP, HEK293 cells with selective expression of ITPR2 (HEKR2); type: cell-based; settings: compounds 10 μM; UTP 1 μM; FIG. 2C
T2 construct: host or cells: HEKR2 (HEK293)
Method: (§2) HEK293 cells totally devoid of ITPR expression (HEK3XKO) or with selective expression of ITPR1 (HEKR1), ITPR2 (HEKR2), or ITPR3 (HEKR3), obtained by selective gene ablation, were purchased from Kerafast (catalog number: EURO30, EURO31, EURO32, EURO33) and cultured in a mixture of Dulbecco's Modified Eagle Medium (DMEM, high glucose version) and Ham's F12 (1:1) and supplemented with 10% fetal bovine serum, 2 mM L-glutamine, 100 U/ml penicillin and 100 μg/ml streptomycin.
as §1

[3] = system: FRT cells; test: Fluo-4 Ca2+ mobilization assay in parental (null) FRT cells; type: cell-based, rat; settings: for direct Ca2+ mobilization in the absence of UTP (Fluo-4): acute addition, Eact 5 μM, FIG. 2B; for direct Ca2+ mobilization in the absence of UTP (Fluo-4) / potentiation of UTP-dependent Ca2+ increase (Fluo-4): compounds 10 μM; for potentiation of UTP-dependent Ca2+ increase (Fluo-4): FIG. 2A
Method: Experiments were performed using the microplate reader described for the HS-YFP assay. FRT and HEK293 cells were cultured until confluence in 96-well microplates (3603, Corning). Cells were washed 2 times with PBS (150 μl/wash) and then loaded for 1 h at 37° C. with 5 μM Fluo-4/AM (Thermo Fisher Scientific; catalog number: F23917) in PBS containing 10 mM glucose, 0.5 mM sulfinpyrazone, and 1% fetal bovine serum. […] Each well was assayed individually. Fluo-4 fluorescence (500 nm excitation, 535 nm emission) was detected every 200 ms for 16-40 s. Two seconds after the start of fluorescence recording, the reader automatically injected 165 μl of a modified PBS containing 136 mM KCl instead of NaCl. This solution also contained 10 mM glucose, 0.5 mM sulfinpyrazone, and UTP or SLIGR-NH2 (CAS #171436-38-7) at a final concentration that depended on the specific cell type. For UTP we used: 0.25 μM for FRT; 1 μM for HEKR2; 5 μM for HEK3XKO, HEKR1, and HEKR3. For SLIGR-NH2 we used: 10 μM for HEKR1; 4 μM for HEKR2. These concentrations were chosen to elicit ˜20% of maximal effect based on UTP and SLIGR-NH2 dose-response relationships. The lower agonist concentrations used for HEKR2 cells, compared to HEKR1 cells, are consistent with the higher affinity of ITPR2 for IP3 (16). The Fluo-4 fluorescence increase was quantified using a procedure compiled in Microsoft Excel after background subtraction and normalization for the initial value measured before UTP addition.
In a further experimental setting, experiments were performed using as above the FLUOstar Omega (BMG Labtech, Offenburg, Germany) microplate reader equipped with syringe pumps and optical excitation/emission filters optimized for yellow fluorescent protein (YFP) fluorescence (ET500/20× and ET535/30m, respectively; Chroma Technology Corporation). FRT and Chem-1 cells were cultured until confluence in 96-well microplates (cc3603, Corning). Cells were washed 2 times with PBS (150 μl/wash) and then loaded for 1 h at 37° C. with 5 μM Fluo-4/AM (Thermo Fisher Scientific; catalog number: F23917) in PBS containing 10 mM glucose, 0.5 mM sulfinpyrazone, and 1% fetal bovine serum. […] Each well was assayed individually. Fluo-4 fluorescence (500 nm excitation, 535 nm emission) was detected every 200 ms for 16-40 s. Two seconds after the start of fluorescence recording, the reader automatically injected 165 μl of a modified PBS containing 136 mM KCl instead of NaCl. This solution also contained, in addition to 10 mM glucose and 0.5 mM sulfinpyrazone, the following agonists: UTP (U6625, Merck) or CCK8s (23371, Cayman Chemical). The Fluo-4 fluorescence increase was quantified using a procedure compiled in Microsoft Excel after background subtraction and normalization for the initial value measured before UTP or CCK8s addition.

[4] = target: ITPR1 (Homo sapiens, UniProt Q14643); test: Fluo-4 Ca2+ assay, UTP, HEK293 cells with selective expression of ITPR1 (HEKR1); type: cell-based; set-up: host or cells: HEKR1 (HEK293); settings: compounds 10 μM; UTP 5 μM; FIG. 2C
Method: as §2, §1

T1 sequence (Q14643 whole entry R269W): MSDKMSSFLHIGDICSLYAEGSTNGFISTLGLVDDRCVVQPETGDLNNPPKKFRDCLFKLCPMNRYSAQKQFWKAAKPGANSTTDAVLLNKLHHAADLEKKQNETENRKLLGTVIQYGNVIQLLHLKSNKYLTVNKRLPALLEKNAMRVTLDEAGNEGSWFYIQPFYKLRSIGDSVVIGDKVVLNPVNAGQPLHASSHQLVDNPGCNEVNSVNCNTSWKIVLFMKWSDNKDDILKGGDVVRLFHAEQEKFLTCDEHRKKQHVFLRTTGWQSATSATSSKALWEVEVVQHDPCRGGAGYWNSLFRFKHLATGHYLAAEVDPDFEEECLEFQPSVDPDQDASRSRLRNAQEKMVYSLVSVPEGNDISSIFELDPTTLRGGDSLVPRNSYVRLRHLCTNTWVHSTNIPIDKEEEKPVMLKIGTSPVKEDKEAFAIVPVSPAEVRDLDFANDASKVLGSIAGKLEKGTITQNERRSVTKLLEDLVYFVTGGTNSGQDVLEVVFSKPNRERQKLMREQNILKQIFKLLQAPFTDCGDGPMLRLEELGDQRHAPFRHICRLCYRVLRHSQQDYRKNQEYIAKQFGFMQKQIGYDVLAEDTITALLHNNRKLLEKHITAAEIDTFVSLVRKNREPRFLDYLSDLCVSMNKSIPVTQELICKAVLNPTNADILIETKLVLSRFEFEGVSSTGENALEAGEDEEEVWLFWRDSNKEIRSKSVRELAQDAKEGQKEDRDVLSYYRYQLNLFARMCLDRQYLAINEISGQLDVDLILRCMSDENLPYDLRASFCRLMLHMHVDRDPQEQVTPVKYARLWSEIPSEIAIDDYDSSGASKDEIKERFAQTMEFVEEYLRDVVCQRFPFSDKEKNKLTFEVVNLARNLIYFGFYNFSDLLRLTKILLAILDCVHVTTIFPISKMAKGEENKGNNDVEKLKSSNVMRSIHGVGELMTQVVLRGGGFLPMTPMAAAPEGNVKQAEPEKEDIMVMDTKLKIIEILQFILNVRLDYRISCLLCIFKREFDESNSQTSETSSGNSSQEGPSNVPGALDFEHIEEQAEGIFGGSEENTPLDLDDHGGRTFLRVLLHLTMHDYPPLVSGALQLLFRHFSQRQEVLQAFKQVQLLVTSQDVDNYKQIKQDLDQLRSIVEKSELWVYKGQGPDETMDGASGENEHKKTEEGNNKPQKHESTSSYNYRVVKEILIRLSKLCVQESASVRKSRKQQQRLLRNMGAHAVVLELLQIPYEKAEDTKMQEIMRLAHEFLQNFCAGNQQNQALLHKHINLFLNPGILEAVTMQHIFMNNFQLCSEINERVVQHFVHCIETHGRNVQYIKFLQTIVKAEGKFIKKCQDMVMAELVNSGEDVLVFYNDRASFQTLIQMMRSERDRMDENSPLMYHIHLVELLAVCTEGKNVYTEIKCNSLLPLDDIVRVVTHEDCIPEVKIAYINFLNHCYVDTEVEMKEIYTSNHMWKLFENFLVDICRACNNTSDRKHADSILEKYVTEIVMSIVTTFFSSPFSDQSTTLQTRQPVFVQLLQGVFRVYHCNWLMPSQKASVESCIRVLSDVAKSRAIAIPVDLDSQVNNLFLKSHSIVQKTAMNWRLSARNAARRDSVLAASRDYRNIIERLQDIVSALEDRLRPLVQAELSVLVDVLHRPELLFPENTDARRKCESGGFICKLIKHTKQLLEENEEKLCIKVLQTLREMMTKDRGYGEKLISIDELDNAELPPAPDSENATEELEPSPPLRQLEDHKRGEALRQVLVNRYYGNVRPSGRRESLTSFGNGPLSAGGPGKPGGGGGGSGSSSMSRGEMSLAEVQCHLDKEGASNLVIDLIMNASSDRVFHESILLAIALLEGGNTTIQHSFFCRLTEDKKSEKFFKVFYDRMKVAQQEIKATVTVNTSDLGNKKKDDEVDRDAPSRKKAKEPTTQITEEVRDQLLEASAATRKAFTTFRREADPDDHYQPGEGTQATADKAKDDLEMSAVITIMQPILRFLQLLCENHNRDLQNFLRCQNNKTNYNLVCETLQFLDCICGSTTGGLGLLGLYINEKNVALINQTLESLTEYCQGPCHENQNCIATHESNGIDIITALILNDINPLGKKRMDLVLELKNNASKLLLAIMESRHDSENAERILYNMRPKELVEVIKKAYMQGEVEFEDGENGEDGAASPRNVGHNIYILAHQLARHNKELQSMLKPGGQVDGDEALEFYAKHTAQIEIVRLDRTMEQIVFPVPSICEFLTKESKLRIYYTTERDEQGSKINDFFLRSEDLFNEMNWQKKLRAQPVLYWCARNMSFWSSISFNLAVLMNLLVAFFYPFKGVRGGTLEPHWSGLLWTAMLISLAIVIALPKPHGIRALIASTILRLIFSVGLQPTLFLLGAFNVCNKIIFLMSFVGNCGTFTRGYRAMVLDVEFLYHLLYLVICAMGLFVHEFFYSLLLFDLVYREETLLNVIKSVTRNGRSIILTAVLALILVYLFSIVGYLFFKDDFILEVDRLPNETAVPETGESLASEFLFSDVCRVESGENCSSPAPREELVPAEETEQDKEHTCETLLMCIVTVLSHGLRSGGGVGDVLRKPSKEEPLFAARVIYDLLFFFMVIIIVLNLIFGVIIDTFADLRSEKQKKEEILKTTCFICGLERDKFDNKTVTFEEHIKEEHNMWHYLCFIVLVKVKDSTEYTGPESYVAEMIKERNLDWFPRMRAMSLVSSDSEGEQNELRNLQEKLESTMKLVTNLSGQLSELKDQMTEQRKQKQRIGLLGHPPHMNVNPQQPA

Compound | potentiation of Ca2+ mobilization elicited by UTP, R269W mutant [1] | potentiation of UTP-elicited Ca2+ increase, ITPR2-only cells [2] | direct Ca2+ mobilization in the absence of UTP (Fluo-4) [3] | potentiation of UTP-dependent Ca2+ increase (Fluo-4) ([3]; UTP 0.25 μM) | potentiation of UTP-elicited Ca2+ increase, ITPR1-only cells [4] | potentiation of the Ca2+ increase elicited by UTP, multiple concentrations ([3]; UTP 0.25 μM, compounds 1-80 μM, vs vehicle (DMSO), FIG. 8)
CCc1cc(-c2cc(NCCCOc3ccccc3C)nc(N)n2)n(C)n1 [ARN7149, 6-(3-Ethyl-1-methyl-1H-pyrazol-5-yl)-N^4-(3-(o-tolyloxy)propyl)pyrimidine-2,4-diamine] | also effective although less than ARN11391 | always effective | No effect | able to potentiate | always effective | 
CCn1nc2c(c1C(=O)Nc1ccccc1OCC1CCCCO1)CCCC2 (stereo not shown) [ARN11391, 2-Ethyl-N-[2-(tetrahydropyran-2-ylmethoxy)phenyl]-4,5,6,7-tetrahydroindazole-3-carboxamide] | marked potentiation | only effective in cells with ITPR1 | No effect | able to potentiate | effective | dose-dependent potentiation
OCc1ccccc1CN(Cc1ccnc(N2CCCC2)n1)c1ccc(F)cc1 [ARN4550, [2-[[4-Fluoro-N-[(2-pyrrolidin-1-ylpyrimidin-4-yl)methyl]anilino]methyl]phenyl]methanol] | also effective although less than ARN11391 | always effective | No effect | able to potentiate | always effective | 

— patent US20260138970A1, “MODULATORS OF THE CALCIUM SIGNALING CASCADE” (FONDAZIONE TELETHON ETS, priority 2022, published 2026)
